Test results from US11166940B2, “Treatment of cardiac disorders by blocking SK4 potassium channel” (Ramot at Tel-Aviv University Ltd., priority 2016, dated 2021).

Key:
CASQ2-D307H KI mice = assay: In vivo telemetric ECG recording in CASQ2-D307H KI mice; set-up: species or system mouse; conditions: 20 mg/kg IP; for number of mice, most severe ECG form: NSVT / number of mice, most severe ECG form: Normal (sinusal rhythm) / number of mice, most severe ECG form: SVT / number of mice, most severe ECG form: VPC: n=5 Clotrimazole, n=12 TRAM-34
Text: (§1) Telemetric ambulatory long-term ECG recordings, analogous to Holter monitoring in humans, were obtained with implantable transmitters. […] An implantable 3.5 grams wireless radiofrequency transmitter (DSI MM USA, device weight 3.8 grams) was aseptically inserted into a subcutaneous tissue pocket in the back as described in Katz, G., et al. Heart Rhythm 7, 1676-1682 (2010) and Kurtzwald-Josefson, E., et al. Heart Rhythm 11, 1471-1479 (2014)]. Animals were allowed to recover after surgery for at least 24 hours before any experiments. Baseline electrocardiograms (ECG) were obtained 15 minutes after IP injection of the appropriate vehicle (peanut oil or peanut oil supplemented with ethanol 1%). […] Telemetered ECG tracings were obtained in conscious mice at rest for one minute and during peak exercise (i.e. the first minute of recovery). In the treadmill exercise, mice were forced to exercise on a rodent treadmill; gradually increasing the speed up to a maximum of 15 m/minute. Ventricular tachycardia (VT) was defined as four or more consecutive ventricular beats. If this phenotype was consecutively observed for more than 15 seconds, it was defined as “sustained” ventricular tachycardia (SVT). Shorter VTs were characterized as “non-sustained” (NSVT). All other ventricular arrhythmias, such as premature beats, ventricular bigeminy, couplets and triplets were all defined as ventricular premature contractions (VPCs).
(§2) A heart telemetry device was implanted in WT, CASQ2-D307H KI and CASQ2 KO mice for continuous ECG recording at rest and during treadmill exercise. For each session, continuous ECG recording was performed with the same animals receiving first intraperitoneal (IP) injection of vehicle (peanut oil) and then the SK4 channel blocker.
(§3) The types of arrhythmic features were classified following their seriousness: sinusal rhythm (normal), ventricular premature contractions (VPC), non-sustained ventricular tachycardia (NSVT) and sustained ventricular tachycardia (SVT). For each mouse was considered the most severe form of arrhythmia recorded under ECG.

WT mice = assay: In vivo telemetric ECG recording in WT (normal) mice; set-up: species or system mouse; conditions: 20 mg/kg IP, WT mice at rest
Text: as §1
as §2, with “For this, a” for “A”, “norma” for “WT, CASQ2-D307H KI and CASQ2 KO”, “20 mg/kg clotrimazole.” for “the SK4 channel blocker.”
as §2

SK4 K+ currents = target: T1, SK4 K+ currents (Mus musculus, UniProt O89109); assay: Voltage-ramp recording of TRAM-34-sensitive current in SAN cells from WT and CASQ2-D307H KI mice; format: cell-based; conditions: 5 μM TRAM-34 added to solution 1
T1 construct: representative traces of SAN cells isolated from WT and CASQ2-D307H KI mice; endogenous in cells; host or cells: primary sinoatrial node (SAN) cells dissociated from WT and CASQ2-D307H KI mouse hearts
Text: Individual SAN cells were isolated from WT and CASQ2-D307H homozygous KI mice and recorded as described above, except that cells were held at −40 mV to improve their stability.
FIGS. 5A-B presents representative traces of SAN cells isolated from WT and CASQ2-D307H KI mice. […] The orange traces indicate that cells were exposed to blocker solution 1. […] The inward hump and substantial inward and outward currents disappeared upon exposure of cells to solution 1 (orange traces).

[1] = test system: intact SAN from CASQ2 D307H KI mice; assay: Spontaneous calcium transients ex vivo in intact SAN tissue from CASQ2-D307H KI mice (Fluo-4 AM); format: cell-based, mouse; conditions: 2 μM TRAM-34 added to 100 nM isoproterenol
Description: (§4) SAN tissue preparations were dissected ex vivo from WT and CASQ2-D307H KI mice as described in Torrente, A. G., et al. Proc Natl Acad Sci USA 112, 9769-9774 (2015). The dissected whole SAN tissue was pinned on a hand-made chamber and was incubated in a Tyrode solution containing 10 μM Fluo-4 AM (Thermo Fisher Scientific) and pluronic acid for 1 hour at 37° C. in the dark. The SAN tissue was washed in Tyrode at 37° C. in the dark for 10 minutes before experiments. Fluorescence of calcium transients was recorded using a photomultiplier (PTi D-104) at 35° C. and the analog signals were digitized using Digidata 1440 (Molecular Devices) and analyzed with pCLAMP 10.5 software.
(§5) To investigate the spontaneous calcium transients of the SAN, intact SAN tissue preparations dissected ex vivo from WT and CASQ2-D307H KI mice were exposed to Fluo-4 AM as previously described [Torrente, A. G., et al. Proc Natl Acad Sci USA 112, 9769-9774 (2015)].
FIG. 6B presents representative traces of different types of calcium transient abnormalities recorded in intact SAN from CASQ2 D307H KI mice, termed as “local Ca^2+ release” (upper left), “double humped transients” (upper right), “large-stored released Ca^2+ waves” (lower left) and “calcium alternans” (lower right).
FIG. 6C presents representative trace of spontaneous calcium transients recorded from intact SAN of CASQ2 D307H KI. The baseline rate of calcium transients (control, black trace) yielded chaotic calcium transients (red trace) following incubation of the SAN with 100 nM isoproterenol.

[2] = test system: intact SAN tissue preparations from WT mice; assay: Spontaneous calcium transients ex vivo in intact SAN tissue from WT mice (Fluo-4 AM); format: cell-based, mouse; conditions: 2 μM TRAM-34 in presence of 100 nM isoproterenol
Description: as §4, §5
FIG. 6A (Left) presents representative traces of spontaneous calcium transients recorded ex vivo in intact SAN tissue preparations from WT mice. […] Right: data summary of calcium transient rate (one-way-ANOVA***P=0.0003; n=12).

CASQ2 KO mice = assay: In vivo telemetric ECG recording in CASQ2 KO mice; set-up: species or system mouse; conditions: 20 mg/kg IP; for number of mice, most severe ECG form: NSVT / number of mice, most severe ECG form: Normal (sinusal rhythm) / number of mice, most severe ECG form: SVT / number of mice, most severe ECG form: VPC: n=6
Text: as §1, §2, §3

## Clc1ccccc1C(c1ccccc1)(c1ccccc1)n1cccn1 [TRAM-34, 1-[(2-chlorophenyl)diphenylmethyl]-1H-pyrazole]
CASQ2-D307H KI mice; KI mice at rest, n=12
  PR prolongation: 23%
  heart rate decrease: 24±4%
CASQ2-D307H KI mice; KI mice during treadmill exercise
  sinus rate and PR interval: significant sinus bradycardia and PR interval prolongation
CASQ2-D307H KI mice; KI mice, resting conditions
  mice with ECG arrhythmic features totally suppressed: 9 out of 12
CASQ2-D307H KI mice; KI at rest
  number of mice, most severe ECG form: NSVT: 0
  number of mice, most severe ECG form: Normal (sinusal rhythm): 9
  number of mice, most severe ECG form: SVT: 0
  number of mice, most severe ECG form: VPC: 3
CASQ2-D307H KI mice; KI during Exercise
  number of mice, most severe ECG form: NSVT: 4
  number of mice, most severe ECG form: Normal (sinusal rhythm): 4
  number of mice, most severe ECG form: SVT: 0
  number of mice, most severe ECG form: VPC: 4
WT mice
  prolongation of the PR interval: 20%
WT mice; vs vehicle in same animal
  reduction of resting heart rate: 16±3%
SK4 K+ currents
  TRAM-34-sensitive current density: TRAM-34-sensitive currents with similar densities were isolated
[1]
  number of SANs displaying double humped transients or large-stored released Ca2+ waves: zero
  shapes of isoproterenol induced aberrant calcium waves: normalized the shapes of isoproterenol induced aberrant calcium waves
[2]
  pattern of the Ca2+ waves: did not alter the pattern of the Ca^2+ waves
CASQ2 KO mice; KO mice at rest, n=7
  PR prolongation: 46%
  heart rate decrease: 34±7%
CASQ2 KO mice; KO mice during treadmill exercise
  sinus rate and PR interval: significant sinus bradycardia and PR interval prolongation
CASQ2 KO mice; KO at rest
  number of mice, most severe ECG form: NSVT: 0
  number of mice, most severe ECG form: Normal (sinusal rhythm): 6
  number of mice, most severe ECG form: SVT: 0
  number of mice, most severe ECG form: VPC: 0
CASQ2 KO mice; KO during exercise
  number of mice, most severe ECG form: NSVT: 3
  number of mice, most severe ECG form: Normal (sinusal rhythm): 3
  number of mice, most severe ECG form: SVT: 0
  number of mice, most severe ECG form: VPC: 0
